Reference: paper PMC6412891, “Synthesis and Biological Evaluation of Novel Thiazolyl-Coumarin Derivatives as Potent Histone Deacetylase Inhibitors with Antifibrotic Activity” (Molecules, 2019)

Columns and labels:
[1] = tested on: HDACs HeLa cells nuclear extract; experiment: HDAC inhibitory activity, fluorometric kit, HeLa cell nuclear extract; format: biochemical, human; conditions: HeLa cell nuclear extract as HDAC source
[2] = Cytotoxicity assay (Alamar Blue) in cardiac fibroblasts; format: cell-based, rat; conditions: Sprague-Dawley, rat, primary neonatal rat cardiac fibroblasts (CFs), CFs treated for 48 h
Protocol: CFs were treated for 48 h with all the new CTz derivatives in a broad concentration range (100 μM^−1 mM), and their cytotoxicity was then evaluated. In Table 3 cytotoxic concentration 50 (CC50) values for each of the synthesized compounds are shown. […] When comparing the different ZBG the series 5 is the least cytotoxic for CFs, while series 8 was the most cytotoxic.
(§1) Sprague Dawley rats were obtained from the Animal Breeding Facility of the School of Chemical and Pharmaceutical Sciences at the University of Chile. All studies followed the Guide for the Care and Use of Laboratory Animals published by the US National Institutes of Health (NIH Publication 8th, 2011), and experimental protocols were approved by the University of Chile Institutional Ethics Review Committee. CF were isolated from of 2 or 3–day–old Sprague-Dawley rats and cultured as described previously. Briefly, the neonatal rats were decapitated and their hearts were extracted under aseptic environment. Atria were removed and ventricles were cut into small pieces (~1–2 mm) for posterior colagenase II digestion. The digestion yield was separated by 10 min centrifugation at 89×g. The pellet was resuspended in 10 mL of Dulbecco’s Modified Eagle’s Medium/Nutrient F-12 (DMEM-F12) supplemented with 10% FBS and antibiotics (100 μg/mL streptomycin and 100 units/mL penicillin) and cultured in a humid atmosphere of 5% CO2 and 95% O2 at 37°C until confluence (5 days). The purity of the CFs population was assessed through the expression of several markers. CFs had positive staining against vimentin (Santa Cruz Biotechnology), while being negative against sarcomeric actin and desmin (Sigma-Aldrich). Experiments were performed on cells at passage 1. Cells were cultured in 35-mm well plates and serum starved for 24 h prior to stimulation.
(§2) To evaluate cytotoxicity, CFs were seeded in 12 microwell plates at a ratio of 2 × 10^4 cell/cm^2, cultured in DMEM–F12 medium + 10% FBS, which was subsequently replaced by DMEM–F12. After 24 h of serum starvation derivatives were applied at proper times and concentrations in accordance to experimental procedures. Cell viability assays were carried out using Alamar Blue®, a nontoxic, cell permeable non fluorescent compound that is blue in color. Viable cells reduce resazurin to resorufin, which produces very bright red fluorescence which is used as a quantitative cell viability measure. 10 μL of 0.2 mg/mL Alamar Blue® was added into each well followed by incubation for 24 h. The fluorescence of Alamar Blue® was read using microplate reader at 570 excitation and emission to 595 nm. Cell survival was expressed as percentage over the untreated cells. To evaluate CFs proliferation assay, cells were seeded as mentioned before, and after serum starvation, they were stimulated by 10% fetal bovine serum (FBS), in presence/absence of CTz derivatives for 24 h, at concentrations according to experiment. Cell proliferation was quantified by Alamar Blue®, according to protocol mentioned before. Cell proliferation was expressed as percentage over the control FBS treated cells.

[3] = molecular target: T1, HDAC1 human recombinant (Homo sapiens, UniProt Q13547); experiment: HDAC1 inhibitory activity, fluorometric kit; format: biochemical; conditions: Class I
T1 construct: purchased Enzo Life Science BML-AK511

[4] = molecular target: T2, HDAC6 human recombinant (Homo sapiens, UniProt Q9UBN7); experiment: HDAC6 inhibitory activity, fluorometric kit; format: biochemical; conditions: Class II
T2 construct: purchased Enzo Life Science BML-AK516
T2 sequence (Q9UBN7 1-1215): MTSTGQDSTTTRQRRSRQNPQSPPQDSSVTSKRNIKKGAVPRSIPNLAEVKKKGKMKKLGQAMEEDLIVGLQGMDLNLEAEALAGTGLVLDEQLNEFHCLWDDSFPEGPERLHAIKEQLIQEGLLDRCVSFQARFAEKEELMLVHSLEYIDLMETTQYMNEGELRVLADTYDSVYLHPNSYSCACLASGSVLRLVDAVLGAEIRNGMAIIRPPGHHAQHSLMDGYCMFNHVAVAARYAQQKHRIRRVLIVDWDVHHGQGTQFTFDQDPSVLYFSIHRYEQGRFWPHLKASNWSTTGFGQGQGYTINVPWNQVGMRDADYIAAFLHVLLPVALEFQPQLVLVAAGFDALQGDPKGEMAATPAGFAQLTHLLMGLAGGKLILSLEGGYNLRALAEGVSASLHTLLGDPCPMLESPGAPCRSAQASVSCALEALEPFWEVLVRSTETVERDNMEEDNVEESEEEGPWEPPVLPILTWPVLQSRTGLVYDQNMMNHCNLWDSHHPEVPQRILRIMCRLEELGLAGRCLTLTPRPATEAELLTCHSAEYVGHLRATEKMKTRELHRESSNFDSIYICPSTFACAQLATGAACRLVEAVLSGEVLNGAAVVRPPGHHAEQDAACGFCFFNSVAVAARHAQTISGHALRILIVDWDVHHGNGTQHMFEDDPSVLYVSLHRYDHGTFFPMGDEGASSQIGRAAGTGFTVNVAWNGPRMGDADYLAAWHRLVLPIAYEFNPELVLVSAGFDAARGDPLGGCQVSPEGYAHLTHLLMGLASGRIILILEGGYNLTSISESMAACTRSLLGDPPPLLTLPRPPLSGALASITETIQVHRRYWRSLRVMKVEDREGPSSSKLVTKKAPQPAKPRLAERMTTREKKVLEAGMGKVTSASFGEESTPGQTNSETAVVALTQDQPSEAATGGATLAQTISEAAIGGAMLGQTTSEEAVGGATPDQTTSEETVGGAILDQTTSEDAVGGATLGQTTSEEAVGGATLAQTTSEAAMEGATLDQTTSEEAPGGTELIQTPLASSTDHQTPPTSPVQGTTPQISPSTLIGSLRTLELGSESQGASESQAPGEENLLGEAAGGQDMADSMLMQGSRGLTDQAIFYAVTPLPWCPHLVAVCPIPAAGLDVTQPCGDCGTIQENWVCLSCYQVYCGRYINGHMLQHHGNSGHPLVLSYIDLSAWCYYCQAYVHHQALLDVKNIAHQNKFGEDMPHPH

[5] = tested on: neonatal rat cardiac fibroblasts (CFs); experiment: FBS-induced cardiac fibroblast proliferation assay (Alamar Blue); format: cell-based; conditions: 10% FBS-induced CF proliferation, 48 h, read-out: Inhibition percentage of cell proliferation
Protocol: CFs were treated for 48 h with 10% fetal bovine serum (FBS), to induce CFs proliferation in presence/absence of each new CTz derivatives in a concentration range of 1–10 μM. In Table 4, the inhibition percentage of cell proliferation for each concentration of the synthesized compounds are shown. All derivatives inhibited CFs proliferation induce by serum.
as §1, with “Cells were cultured in 35-mm well plates and serum starved for 24 h prior to stimulation.” left out
as §2, with “10 μL of 0.2 mg/mL Alamar Blue® was added into each well followed by incubation for 24 h.” left out, “To evaluate CFs proliferation assay, cells were seeded as mentioned before, and after serum starvation, they were stimulated by 10% fetal bovine serum (FBS), in presence/absence of CTz derivatives for 24 h, at concentrations according to experiment.” left out

[6] = tested on: α-SMA expression in CFs; experiment: α-SMA expression levels in cardiac fibroblasts, western blot; format: cell-based, rat; conditions: derivatives 5 μM (TSA 0.1 μM) for 48 h in presence of TGF-β1
Protocol: For this purpose, a fixed concentration of 5a, 6a, 7a and 8a derivatives in the presence/absence of TGF–β1 (a strong inducer of CFs–to–CMFs differentiation), was studied, and α–SMA expression levels were measured by using the western blot technique. TSA was used as a control and also for comparative purposes.
(§3) For the analysis of the protein expression of histone H4–acetylated (ac–H4) and total H4 histone, a number of 1 × 10^6 of CFs seeded in 60 mm plates was used, which were incubated with the inhibitory compounds at a concentration of 10 μM, in the absence/presence of TGF–β1(5ng/mL) for 4 h. Subsequently, total histones were extracted by the technique of saline precipitation (high salt extraction). Briefly, CFs were scraped from the plates with 1 mL of cold PBS transferring their contents to Eppendorf tubes to be centrifuged for 60 s at 1500 rpm at 4 °C and re–suspended in 400 μL of cold buffer A (10 mM 4-(2-hydroxyethyl)-1-piperazineethanesulfonic acid-KOH (HEPES-KOH) adjusted to pH 7.9, 1.5 mM MgCl2, 10 mM KCl, 0.5 mM dithiothreitol and 0.2 mM phenylmethylsulfonyl fluoride (PMSF). The suspension is left on ice for 10 min and then placed in the vortex for 10 s. The samples were centrifuged for 60 s, subsequently discarding the supernatant fraction. The obtained pellet was re-suspended in 60 μL of cold C buffer (20 mM HEPES-KOH adjusted to pH 7.9, 25% glycerol, 420 mM NaCl, 1.5 mM MgCl2, 0.2 mM EDTA, dithiothreitol 0.5 mM and 0.2 mM PMSF) and placed on ice for 20 min for saline precipitation. Cell debris is removed by centrifugation for 120 s at 1500 rpm at 4 °C and the supernatant fraction, which contains the DNA binding proteins, is stored at minus 20 °C. For the analysis of α–SMA and procollagen type I expression levels, 3×10^5 CFs seeded in 35 mm plates were used, which were incubated together with inhibitor compounds at a 5 μM, in the absence/presence of TGF–β1 (5 ng/mL) for 48 h. To obtain the total proteins, the CFs were washed three times with cold PBS, then scraped and lysed with 50 μL of radio inmuno-precipitation assay (RIPA) lysis buffer (10 mM Tris–HCl pH 7.2, 5 mM EDTA, 150 mM NaCl, Triton X–100 1%, sodium dodecyl sulfate (SDS) 0.1%, deoxycholate 1%, leupeptin 2 μg/mL, aprotinin 10mM, PMSF 1mM and Na3VO4 100μM). The solution was centrifuged for 15 min at 10,000 rpm and at 4 °C. The supernatant fraction containing the total proteins was stored at minus 20 °C. The concentration of proteins obtained was determined by spectrophotometry at 570 nm, using the Bradford method (Bio-Rad, Hercules, CA, USA).
(§4) CFs proteins (25 μg), were subjected to 10% sodium dodecyl sulfate-polyacrylamide gel electrophoresis and finally transferred onto a nitrocellulose membrane (Millipore, Billerica, MA, USA). The membrane was washed twice with tris–buffered saline solution containing 0.1% Tween 20 (TBST). After being blocked with TBST containing 5% nonfat milk for 40 min, the membrane was incubated with primary antibodies in TBST/1% nonfat milk at 4 °C overnight. The membrane was washed three times with TBST for a total of 15 min and then incubated with primary antibodies (ac–H4, H4 total, α-SMA, procollagen type I and GAPDH). Then the membrane was incubated with goat anti–rabbit or anti-mouse IgG antibodies conjugated with horseradish (diluted 1:1000) for 1 h at room temperature. Signals were developed with ECL reagents and exposure to photographic film.
Figure 4 CTz non–substituted inhibit α-SMA expression in cardiac fibroblasts. (A) CFs were exposed to 5a, 6a, 7a and 8a at 5 μM for 48 h. […] (B) CFs were exposed to 5a, 6a, 7a and 8a at 5 μM for 48 h in presence of TGF–β1 ([…]). α-SMA expression levels were measured by western blot. GAPDH was used as control load.

[7] = tested on: procollagen type I expression in CFs; experiment: Procollagen type I expression levels in cardiac fibroblasts, western blot; format: cell-based, rat; conditions: derivatives 5 μM (TSA 0.1 μM) for 48 h in presence of TGF-β1
Protocol: In CFs collagen type I secretion is a hallmark of cardiac fibrosis development, which is regulated by HDACs. […] For this purpose, a fixed concentration of 5a, 6a, 7a and 8a derivatives in presence/absence of TGF-β1 were studied, and procollagen type I expression levels were measured by using the western blot technique. TSA was used as control and also for comparative purposes. In Figure 5 (A and B), in the upper panel representative photographs of procollagen type I expression level and GAPDH (used as charge control) are shown, whereas in the lower panel the graphic analyses are observed.
as §3, §4
Figure 5 CTz non–substituted inhibit procollagen type I expression levels in cardiac fibroblasts. […] (B) CFs were exposed to 5a, 6a, 7a and 8a at 5 μM for 48 h in presence of TGF–β1. Procollagen type I expression levels were measured by western blot. GAPDH was used as control load.

T1 sequence (Q13547 whole entry): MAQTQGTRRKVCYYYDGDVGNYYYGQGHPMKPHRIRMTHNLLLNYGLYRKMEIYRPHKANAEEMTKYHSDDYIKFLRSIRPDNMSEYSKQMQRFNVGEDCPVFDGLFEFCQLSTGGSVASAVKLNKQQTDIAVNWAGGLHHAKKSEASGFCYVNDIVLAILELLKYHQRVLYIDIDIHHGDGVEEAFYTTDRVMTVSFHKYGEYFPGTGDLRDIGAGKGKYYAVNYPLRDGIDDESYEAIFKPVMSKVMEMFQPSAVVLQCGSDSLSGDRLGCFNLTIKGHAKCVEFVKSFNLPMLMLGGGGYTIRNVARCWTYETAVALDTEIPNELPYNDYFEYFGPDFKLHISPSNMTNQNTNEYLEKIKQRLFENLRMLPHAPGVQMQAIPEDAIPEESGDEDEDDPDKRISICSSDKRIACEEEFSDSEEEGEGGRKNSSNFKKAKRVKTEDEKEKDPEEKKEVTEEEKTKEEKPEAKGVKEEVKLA

Row | SMILES | IC50 [1] | melting point | CC50 at 48 h [2] | IC50 [3] | IC50 [4] | inhibition at 1 µM ([5]; 1 μM) | inhibition at 5 µM ([5]; 5 μM) | inhibition at 10 µM ([5]; 10 μM) | α-SMA expression levels induced by TGF-β1 [6] | procollagen type I expression levels induced by TGF-β1 [7]
1 | O=C(CCCCC1CCSS1)Nc1nc(-c2cc3cc(Br)ccc3oc2=O)cs1 (centres unmarked) [Compound 5b, 5-[1,2]-Dithiolan-3-yl-N-[4-(6-bromo-2-oxo-2H-chromen-3-yl)-thiazol-2-yl]-pentanamide] | 62.1 ± 2.5 nM | 150 to 153 °C | 127000 ± 19200 nM | 47.6 ± 2.3 nM | 123 ± 5.1 nM | 71.5 ± 3.8% | 89.1 ± 9.5% | 96.4 ± 4.7% | – | –
2 | CC(/C=C/C(=O)NO)=C\[C@@H](C)C(=O)c1ccc(N(C)C)cc1 [TSA, trichostatin A, reference compound] | 5 ± 0.12 nM | – | – | – | – | – | – | – | decrease close to control levels | decreased, close to control levels
